From patent US20050014768A1, “Use of 4-oxobutanoic acid derivatives in the treatment of inflammation” (priority 2001, published 2005)

System: carrageenan-induced inflammatory oedema of the rat paw
Test: Test of carrageenan-induced inflammatory oedema (rat paw, plethysmometry)
Assay type: in vivo, Rat of Wistar type
Details: for V oedema: difference in paw volume before and three hours after carrageenan, one hour before carrageenan; for Reduction in oedema: versus controls, three hours after carrageenan
Description: The compounds of the formula (I) were subjected to biological tests designed to reveal their anti-inflammatory activity. The in vivo activity of the compounds of the formula (I) was studied in an experimental model of inflammation in rats. Inflammatory oedema of the rat paw is induced by intradermal injection of carrageenan (1% V/V) into the hind paw of the rat. This oedema is measured by plethysmometry according to the method of Winter C. A. et al. (Proc. Soc. Exp. Biol. Med.; (1962); 111; 544-547). The substances with an anti-inflammatory effect bring about a reduction in the oedema thus created. Indomethacin is used as anti-inflammatory reference in the test.
Animal model: Rat of Wistar type
Anti-inflammatory reference: indomethacin from the company Sigma
Control: 0.5% methylcellulose hydrogel.
After fasting for one day, the volume of the right hind paw is measured [V paw]. The test compounds, the reference and the control are administered orally in a volume of 10 ml/kg. One hour after administration, oedema is induced by an intraplantar injection of 50 microlitres of carrageenan (1%, VN) hydrogel into the right hind paw. The volume of this paw is measured three hours after inducing the oedema. The intensity of the oedema [V oedema] is evaluated by the difference in the volume of the paw, before and three hours after the injection of carrageenan.

SMILES | V oedema (oral 30 mg) | V oedema (oral 100 mg) | V oedema (oral 300 mg) | Reduction in oedema (oral 30 mg) | Reduction in oedema (oral 100 mg) | Reduction in oedema (oral 300 mg) | V oedema (oral, dose not given) | Reduction in oedema (oral, dose not given)
O=C(CC(Cc1ccccc1)C(=O)O)c1ccc(F)cc1 (single isomer, unassigned; (-)) [P, (−)-2-benzyl-4-(4-fluorophenyl)-4-oxobutanoic acid] | 0.42 mL | 0.11 mL | 0.17 mL | −32% | −83% | −73% |  | 
COc1ccc2c(c1)c(CC(=O)O)c(C)n2C(=O)c1ccc(Cl)cc1 [Indomethacin, indomethacin, reference compound] |  |  |  |  |  |  | 0.20 mL | −67%
